“And” between values parts separate entries of the source, which are not always exact repeats. Equal values may be shown once.
Columns and labels:
[1] = test system: β-glucuronidase in rat colon feces; assay: Rat colon fecal homogenate stability assay; assay type: in vitro ADME; conditions: in vitro half-life in rat fecal supernatant-homogenate, anaerobic, 10 μM substrate, individual values when assay repeated; for half-life at 10 μM: male, rat, rat colon fecal supernatant-homogenate, read-out: T½
From the text: The compounds of the present invention contain a glucuronide prodrug moiety that is expected to be cleaved by β-glucuronidase enzyme. The objective of this assay was to determine the half-life for compounds of the present invention in the presence of β-glucuronidase in rat colon feces.
Following sacrifice of a naïve male rat (˜300 g) by cardiac puncture exsanguination, the colon was ligated and removed to an anaerobic chamber (AS-580, Anaerobe Systems). The fecal content was removed within the chamber and was diluted 1:10 with phosphate buffer (1 gram fecal content to 9 mL phosphate buffer) and the resulting mixture was homogenized using a handheld Omni Tissue Master. The fecal homogenate was centrifuged at 2000 g for 10 min to remove bulk material and the supernatant was removed and used for the incubations.
DMSO stock solutions (10 mM) of the test compounds and sulfasalazine (control) were prepared. Sulfasalazine was used as a positive control to confirm viability of the fecal supernatant-homogenate (see, e.g., Azad Khan et al., Clinical Science (1983) 64, 349-354). If the in vitro half-life (T½) for sulfasalazine in the fecal sample was less than 30 min, the fecal sample was deemed to be viable and in true anaerobic conditions. However, if the T½ for sulfasalazine was greater than 30 min, the fecal sample was typically contaminated with oxygen and was not viable. The final substrate concentration of each assay was 10 μM. Reactions were started by adding a 5 μL aliquot of diluted test compound stock solution into 300 μL of rat fecal supernatant-homogenate. At 0, 15, 30, 60, 90, and 120 min post reaction initiation, a 50 μL aliquot was removed and added to a mixture of 200 μL of acetonitrile with 3% formic acid and an internal standard. All samples were centrifuged at 2000 g for 10 min after which 50 μL of supernatant was diluted into 150 μL of water for analysis on an LC-MS system. In vitro half-lives (T½) for the test compounds were calculated as follows: T½=0.693/elimination rate constant. When the assay was performed more than once, individual values are reported.

[2] = Oral pharmacokinetics in rat assay; assay type: in vivo; conditions: liberated tofacitinib AUC0-6 h in colon tissue; male Sprague Dawley rats, single PO dose 5 mg/kg of test compound
Procedure: When cleaved by β-glucuronidase enzyme, the compounds of the present invention release tofacitinib. The object of this assay was to determine tofacitinib exposure (AUC0-6 h) in colon tissue and plasma following oral dosing of compounds of the present invention in rats.
Male Sprague Dawley rats (n=2/time point) received a single PO oral gavage dose (5 mg/kg in 1:20 mixture of 5% DMSO and 1% HPMC) of test compounds. At 0.5, 1, 3, 6 and 24 h post-dosing, rats were sacrificed via cardiac puncture exsanguination, and blood samples were taken and placed into sample tubes (Microtainer, Becton, Dickinson and Company) containing sodium fluoride and then placed on ice. Plasma was obtained by centrifugation (Eppendorf centrifuge, 5804R) for 4 minutes at approximately 12,000 rpm at 4° C.
The colons were removed from exsanguinated rats and the colon contents gently removed. The colons were flushed with saline and patted dry. The colons were then homogenized in 3× the weight of sterile water using a tissue homogenizer (Precellys homogenizer, Bertin Instruments) at approximately 4° C. All samples were stored at −80° C. for later bioanalysis.
The concentration of tofacitinib in each sample was determined as follows: the plasma and colon samples were vortexed, combined with a 50 μL aliquot of rat plasma, extracted with 200 μL of ACN containing an internal standard and quantified against the internal standard by LC-MS. An area-under-the-concentration curve (AUC0-6 h) was calculated for plasma and colon test compound and liberated tofacitinib. A key parameter to assess suitability for localized delivery of tofacitinib to the colon was the tofacitinib colon to plasma AUC ratio.

[3] = test system: oxazolone-induced colitis; assay: Mouse model of oxazolone-induced colitis; assay type: in vivo; conditions: PO, BID, BALB/C mice, vs vehicle/oxazolone, p<0.05
Procedure: Oxazolone-induced colitis is an experimental model that has a histological resemblance to human ulcerative colitis (Heller et al. […], 2002, 17, 629-638). Adult BALB/C mice (25-28 g, 9-12 weeks of age) from BioNeeds (India) were used in the assay. On Day 1, animals were lightly anesthetized with isoflurane and the hairs between the shoulder were carefully removed. Oxazolone (6 mg/mouse, 100 μL, 4:1 acetone:olive oil formulation) or vehicle solution was slowly applied to the bare skin patch to induce skin sensitization. Six days after skin sensitization, the mice were fasted overnight and then anesthetized with ketamine and xylazine administered intraperitoneally. A 1 mL syringe filled with oxazolone solution (0.5 mg/50 μL/mouse in 50% ethanol) or 50% ethanol/saline was inserted carefully ˜3.8 cm into the colon of the mouse. Animals were kept in a head down position and oxazolone or vehicle solution was rectally instilled very slowly over a minute. The mice were held vertically (head down) for another minute to ensure that the entire oxazolone or vehicle solution remained inside the colon. Test compound treatment (PO, BID or TID) or vehicle was initiated the evening prior to the oxazolone intrarectal (IR) challenge. On both first (Day 1) and second (Day 2) days post-oxazolone IR challenge, the Disease Activity Index (DAI) was assessed by treatment-blinded experimenters for each mouse, according to the following subscores: stool consistency (0, normal; 2, loose; 4, diarrhea), gross bleeding and hemoccult test (0, absence; 2, blood tinged; 4, overt blood presence), and weight loss (0, none; 1, 1%-5%; 2, 6^%-10%; 3, 11%-15%; 4, more than 15%); DAI=average of (stool consistency+blood presence+weight loss scores).
An area-under-the-curve (AUC) calculation based on total DAI scores was performed to track disease progression during the course of the experiment. AUC for each experimental group was calculated as: AUC=[(Day 1−Day 0)*Average (DAI Score of Day 0 & Day 1)]+[(Day 2−Day 1)*Average (DAI Score of Day 1 & Day 2)]. A Student's t-test compared the DAI AUC score of the vehicle/vehicle and vehicle/oxazolone groups to evaluate whether disease was induced following oxazolone treatment. This was followed by a one-way analysis of variance (ANOVA), with Dunnett's post hoc test, to compare the DAI AUC score of the vehicle/oxazolone and test compound/oxazolone groups. Statistical significance was defined by an α level set at p<0.05.

[4] = Oral pharmacokinetics in mouse assay; assay type: in vivo; conditions: liberated tofacitinib AUC0-6 h in colon tissue; male Balb/c mice, single PO dose 5 mg/kg of test compound
Procedure: When cleaved by β-glucuronidase enzyme, the compounds of the present invention release tofacitinib. The object of this assay was to determine tofacitinib exposure (AUC0-6 h) in colon tissue and plasma following oral dosing of compounds of the present invention in mice.
Male Balb/c mice (n=2/time point) received a single PO oral gavage dose (5 mg/kg in 1:20 mixture of 5% DMSO and 1% HPMC) of the test compound. At 2 h and 6 h post-dosing, mice were sacrificed via cardiac puncture exsanguination and blood samples were taken and placed into sample tubes (Microtainer, Becton, Dickinson and Company) containing sodium fluoride and then placed on ice. Plasma was obtained by centrifugation (Eppendorf centrifuge, 5804R) for 4 min at approximately 12,000 rpm at 4° C.
The colons were removed from the exsanguinated mice and the colon fecal contents were gently removed. The colons were flushed with saline and patted dry. […]
The concentration of tofacitinib in each sample was determined as follows: the plasma and colon homogenate samples were vortexed, combined with a 50 μL aliquot of rat plasma, extracted with 200 μL of ACN containing an internal standard and quantified against the internal standard by LC-MS. An area-under-the-concentration curve (AUC0-6 h) was calculated for plasma and colon test compound and liberated tofacitinib. […]

Row | Structure (SMILES) | T½ [1] | half-life at 10 μM [1] | Colon AUC [2] | reversal of oxazolone-induced colitis (DAI AUC score) ([3]; 3, 10 and 30 mg/kg) | reversal of oxazolone-induced colitis (DAI AUC score) ([3]; 3 and 30 mg/kg) | Colon AUC [4] | reversal of oxazolone-induced colitis (DAI AUC score) ([3]; 30 mg/kg)
1 | C[C@@H]1CCN(C(=O)CC#N)C[C@@H]1N(C)c1ncnc2c1ccn2C(=O)N(C)c1ccccc1O[C@@H]1O[C@H](C(=O)O)[C@@H](O)[C@H](O)[C@H]1O [Compound III-2, (2S,3S,4S,5R,6S)-6-(2-(4-(((3R,4R)-1-(2-Cyanoacetyl)-4-methylpiperidin-3-yl)(methyl)amino)-N-methyl-7H-pyrrolo[2,3-d]pyrimidine-7-carboxamido)phenoxy)-3,4,5-trihydroxytetrahydro-2H-pyran-2-carboxylic Acid] | 29 min and < 15 min | 20 min | 33.2 µg·h/g | statistically significant reversal | – | – | –
2 | C[C@@H]1CCN(C(=O)CC#N)C[C@@H]1N(C)c1ncnc2c1ccn2C(=O)N(C)CCN(C)C(=O)O[C@@H]1O[C@H](C(=O)O)[C@@H](O)[C@H](O)[C@H]1O [Compound II-1, (2S,3S,4S,5R,6S)-6-(((2-(4-(((3R,4R)-1-(2-Cyanoacetyl)-4-methylpiperidin-3-yl)(methyl)amino)-N-methyl-7H-pyrrolo[2,3-d]pyrimidine-7-carboxamido)ethyl)(methyl)carbamoyl)oxy)-3,4,5-trihydroxytetrahydro-2H-pyran-2-carboxylic Acid] | 16 min and < 15 min | 14 min | 20.2 µg·h/g | – | statistically significant reversal | – | –
3 | C[C@@H]1CCN(C(=O)CC#N)C[C@@H]1N(C)c1ncnc2c1ccn2C(=O)N(C)c1cc([N+](=O)[O-])ccc1O[C@@H]1O[C@H](C(=O)O)[C@@H](O)[C@H](O)[C@H]1O [Compound III-1, (2S,3S,4S,5R,6S)-6-(2-(4-(((3R,4R)-1-(2-Cyanoacetyl)-4-methylpiperidin-3-yl)(methyl)amino)-N-methyl-7H-pyrrolo[2,3-d]pyrimidine-7-carboxamido)-4-nitrophenoxy)-3,4,5-trihydroxytetrahydro-2H-pyran-2-carboxylic Acid] | – | 2 min | – | – | – | 6.07 µg·h/g | statistically significant reversal

Reference: patent US10472366B2, “Glucuronide prodrugs of tofacitinib” (THERAVANCE BIOPHARMA R&D IP, LLC, priority 2017, dated 2019)
